Reference: PubChem BioAssay (NCI)
Where “and” joins values, the source holds several entries; their conditions need not be identical. Equal values may be shown once.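 Each compound was tested at five concentrations against cells in 96-well plates for 48 hours. The concentration for 50% growth inhibition is given as GI50. TGI is the concentration that stops growth completely.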

Key:
Assay in all cases: NCI-60 cell line screen, 48 h
[1] = system: ACHN renal
[2] = system: HCC-2998 colon
[3] = system: HCT-116 colon
[4] = system: HOP-92 NSCLC
[5] = system: NCI-H460 lung
[6] = system: OVCAR-5 ovarian
[7] = system: OVCAR-8 ovarian
[8] = system: RXF 393 renal
[9] = system: SF-539 CNS
[10] = system: UO-31 renal

Work on `Nc1nc2c(c(-c3cccc(Cl)c3)n1)COC/C2=C\c1cccc(Cl)c1` yielded a TGI [1] greater than 100 µM, a TGI [2] greater than 100 µM and a TGI [3] greater than 100 µM. It also gave a TGI [4] greater than 100 µM, a TGI [5] greater than 100 µM and a TGI [6] greater than 100 µM. The TGI [7] was greater than 100 µM, the TGI [8] was greater than 100 µM and the TGI [9] was greater than 100 µM. For the same molecule, the TGI [10] was 76.3 µM.
`O=[N+]([O-])c1cc(C=NC23CC4CC(CC(C4)C2)C3)ccc1Cl` was tested, and the TGI [1] was 56.9 µM, the TGI [2] was 75.1 µM and the TGI [3] was 19.5 µM. The TGI [4] was 60.5 µM, the TGI [5] was greater than 71 µM and the TGI [6] was greater than 100 µM. For the same molecule, the TGI [7] was greater than 90.9 µM, the TGI [8] was 37.2 µM and the TGI [9] was 55.7 µM. It also gave a TGI [10] of 15.8 µM.
In the case of `O=C1CCCCC1CN1CCCCC1` (stereo not given), the TGI [1] is reported as greater than 100 µM, the TGI [2] is reported as greater than 100 µM and the TGI [3] is reported as greater than 100 µM. The TGI [4] was greater than 100 µM, the TGI [5] was greater than 100 µM and the TGI [6] was greater than 100 µM. It also gave a TGI [7] greater than 100 µM, a TGI [8] greater than 100 µM and a TGI [9] greater than 100 µM. The TGI [10] was greater than 100 µM.
`CC1(C)O[C@H]2OC(CO[Si](C)(C)C(C)(C)C)C(N=[N+]=[N-])[C@H]2O1` (stereo not given in full) showed a TGI [1] of 38.6 µM, a TGI [2] of 32.2 µM and a TGI [3] of 28.9 µM. For the same molecule, the TGI [4] was 75.9 µM, the TGI [5] was 43.7 µM and the TGI [6] was 35.2 µM. For the same molecule, the TGI [7] was 38.1 µM, the TGI [8] was 32.6 µM and the TGI [9] was 36 µM. The TGI [10] was 32.3 µM.
For `CCC(=O)NCC1CCCN2CCCCC12` (stereo not given), the TGI [1] was greater than 100 µM, the TGI [2] was greater than 100 µM and the TGI [3] was greater than 100 µM. The TGI [4] was greater than 100 µM, the TGI [5] was greater than 100 µM and the TGI [7] was greater than 100 µM. It also gave a TGI [8] greater than 100 µM, a TGI [9] greater than 100 µM and a TGI [10] greater than 100 µM.
In the case of `CCOC(=O)Nc1sc2c(c1C#N)CCCC2`, the TGI [1] is reported as greater than 100 µM, the TGI [2] is reported as greater than 100 µM and the TGI [3] is reported as greater than 100 µM. The TGI [4] was greater than 100 µM, the TGI [5] was greater than 100 µM and the TGI [6] was greater than 100 µM. It also gave a TGI [8] greater than 100 µM and a TGI [10] greater than 100 µM.
`Cc1ccccc1C(=N)c1ccccc1Cc1cccc2ccccc12` was tested, and the TGI [1] was greater than 100 µM, the TGI [2] was 36.7 µM and the TGI [3] was 46.9 µM. For the same molecule, the TGI [4] was 54.8 µM, the TGI [5] was 38.6 µM and the TGI [6] was greater than 100 µM. The TGI [7] was greater than 100 µM, the TGI [8] was 20.3 µM and the TGI [9] was 35.4 µM. It also gave a TGI [10] greater than 100 µM.
For `COc1ccc(N=NC(=Nc2ccccc2)c2ccc(N(CCC#N)CCC#N)cc2)cc1`, the TGI [1] was greater than 100 µM, the TGI [2] was greater than 100 µM and the TGI [3] was greater than 100 µM. It also gave a TGI [4] greater than 100 µM, a TGI [5] greater than 100 µM and a TGI [6] greater than 100 µM. For the same molecule, the TGI [7] was greater than 100 µM, the TGI [8] was greater than 100 µM and the TGI [9] was greater than 100 µM. For the same molecule, the TGI [10] was greater than 100 µM.
`N#CC(NCc1cccc(CNC(C#N)c2ccccc2)c1)c1ccccc1` (stereo not given) showed a TGI [1] greater than 100 µM, a TGI [2] of 28.1 µM and a TGI [3] of 56.4 µM. It also gave a TGI [4] of 89.8 µM, a TGI [6] greater than 100 µM and a TGI [7] greater than 100 µM. The TGI [8] was greater than 100 µM, the TGI [9] was 26.1 µM and the TGI [10] was greater than 100 µM.
In the case of `CC(=O)c1c2c(c3ccccc3c1O)O[C@@H]1OCC[C@H]21`, the TGI [1] is reported as greater than 100 µM, the TGI [2] is reported as greater than 100 µM and the TGI [3] is reported as greater than 100 µM. The TGI [4] was greater than 100 µM, the TGI [5] was greater than 100 µM and the TGI [6] was greater than 100 µM. The TGI [7] was greater than 100 µM, the TGI [8] was greater than 100 µM and the TGI [9] was greater than 100 µM. It also gave a TGI [10] greater than 100 µM.
Molecule `COc1cc(S(=O)(=O)Nc2nc(-c3ccc(N4C(=O)C(CC(=O)O)SC4c4cccs4)cc3)cs2)ccc1Cl` (stereo not given) has a TGI [1] greater than 100 µM, a TGI [2] greater than 100 µM and a TGI [3] greater than 100 µM. It also gave a TGI [4] of 89.5 µM, a TGI [5] greater than 100 µM and a TGI [6] greater than 100 µM. It also gave a TGI [7] greater than 100 µM, a TGI [8] of 32.5 µM and a TGI [9] greater than 100 µM. It also gave a TGI [10] of 45.2 µM.
`Cc1ccnc(NS(=O)(=O)c2ccc(N=[N+]=[N-])cc2)n1` showed a TGI [1] greater than 100 µM, a TGI [3] greater than 100 µM and a TGI [4] greater than 100 µM. For the same molecule, the TGI [5] was greater than 100 µM, the TGI [6] was greater than 100 µM and the TGI [7] was greater than 100 µM. It also gave a TGI [8] greater than 100 µM, a TGI [9] greater than 100 µM and a TGI [10] greater than 100 µM.
With `O=C(Cc1ccc(O)c(O)c1)NCc1c[nH]c2ccccc12` the TGI [2] was greater than 100 µM, the TGI [3] was greater than 100 µM and the TGI [4] was greater than 100 µM. The TGI [5] was greater than 100 µM, the TGI [6] was greater than 100 µM and the TGI [7] was greater than 100 µM. It also gave a TGI [8] greater than 100 µM, a TGI [9] greater than 100 µM and a TGI [10] greater than 100 µM.
In the case of `CCCCCC1=CC(=O)C1(Cl)Cl`, the TGI [1] is reported as 23.4 µM, the TGI [2] is reported as 27.7 µM and the TGI [3] is reported as 28.4 µM. It also gave a TGI [4] of 63.3 µM, a TGI [5] greater than 61.2 µM and a TGI [6] of 29.5 µM. The TGI [7] was 34 µM, the TGI [8] was 35.3 µM and the TGI [9] was 38.9 µM. The TGI [10] was 38.2 µM.
`COc1ncc(/C=C2\OC(=O)c3ccccc32)c(OC)n1` showed a TGI [1] greater than 100 µM, a TGI [2] greater than 100 µM and a TGI [3] greater than 100 µM. The TGI [4] was greater than 100 µM, the TGI [5] was greater than 100 µM and the TGI [6] was greater than 100 µM. For the same molecule, the TGI [7] was greater than 100 µM, the TGI [8] was greater than 100 µM and the TGI [9] was greater than 100 µM. It also gave a TGI [10] greater than 100 µM.
With `Cc1oc2c(cc(O)c3cc(O)ccc32)c2cccc1-2` the TGI [1] was greater than 100 µM, the TGI [2] was greater than 100 µM and the TGI [3] was greater than 100 µM. For the same molecule, the TGI [4] was greater than 100 µM, the TGI [5] was greater than 100 µM and the TGI [6] was greater than 100 µM. For the same molecule, the TGI [7] was greater than 100 µM, the TGI [8] was greater than 100 µM and the TGI [9] was greater than 100 µM. The TGI [10] was greater than 100 µM.
For `Oc1ccccc1CNCc1nc2ccccc2[nH]1`, the TGI [1] was 57.6 µM, the TGI [2] was greater than 100 µM and the TGI [3] was greater than 100 µM. For the same molecule, the TGI [4] was greater than 100 µM, the TGI [6] was greater than 100 µM and the TGI [7] was greater than 100 µM. It also gave a TGI [8] greater than 100 µM, a TGI [9] greater than 100 µM and a TGI [10] of 49.1 µM.
`COc1ccc2[nH]cc(/C=C(/C)c3ccncc3)c2c1` was tested, and the TGI [2] was 95.3 µM, the GI50 [3] was 3.67 µM and the TGI [3] was 16.8 µM and 20.5 µM. For the same molecule, the GI50 [4] was 13.3 µM, the TGI [4] was > 100 µM and 52.6 µM and the TGI [5] was 12.5 µM and 22.4 µM. For the same molecule, the GI50 [6] was 11.6 µM, the TGI [6] was 41.5 µM and > 100 µM and the GI50 [7] was 7.76 µM. The TGI [7] was greater than 100 µM, the GI50 [8] was 2.74 µM and the TGI [8] was 10.3 µM. The GI50 [9] was 4.46 µM, the TGI [9] was 19.9 µM and > 100 µM and the GI50 [10] was 3.85 µM. For the same molecule, the TGI [10] was 28.4 µM and 96.4 µM.
Work on `CC1=Nc2ccccc2OC(C)=C1N=Nc1ccc2nc(C)[nH]c2c1` yielded a TGI [1] greater than 100 µM, a TGI [2] greater than 100 µM and a TGI [3] greater than 100 µM. The TGI [4] was greater than 100 µM, the TGI [5] was greater than 100 µM and the TGI [6] was greater than 100 µM. The TGI [7] was greater than 100 µM, the TGI [8] was greater than 100 µM and the TGI [9] was greater than 100 µM.
`COP(=O)(OC)C1=c2c(C)noc2=C2C=COC2C1=O` (stereo not given) gave a TGI [1] greater than 100 µM, a TGI [2] greater than 100 µM and a TGI [3] greater than 100 µM. It also gave a TGI [4] greater than 100 µM, a TGI [6] greater than 100 µM and a TGI [7] greater than 100 µM. It also gave a TGI [8] greater than 100 µM, a TGI [9] greater than 100 µM and a TGI [10] greater than 100 µM.
With `Nn1c(Nc2ccc(S(=O)(=O)Nc3ncccn3)cc2)nnc(/C=C/c2c(O)ccc3ccccc23)c1=O` the TGI [1] was 67.3 µM, the TGI [2] was 57.7 µM and the TGI [3] was 51.1 µM. The TGI [4] was greater than 100 µM, the TGI [5] was 69.2 µM and the TGI [6] was 91.9 µM. It also gave a TGI [7] greater than 100 µM, a TGI [8] of 80.3 µM and a TGI [10] greater than 100 µM.
`O=[N+]([O-])c1ccc2[nH]nc(OCc3ccccc3Cl)c2c1` gave a TGI [1] of 62.1 µM, a TGI [2] greater than 100 µM and a TGI [3] of 74.7 µM. It also gave a TGI [4] of 47.4 µM, a TGI [5] greater than 100 µM and a TGI [6] greater than 100 µM. For the same molecule, the TGI [7] was greater than 100 µM, the TGI [8] was 48.2 µM and the TGI [9] was 50.9 µM.
